How the values were obtained:
[1] = target: T1, Beta-lactamase (Escherichia coli K-12, UniProt P00811); assay: Inhibition of 1 nM AmpC beta lactamase
[2] = target: T1, Beta-lactamase; assay: Inhibition of 10 nM AmpC beta lactamase
[3] = target: T1, Beta-lactamase; assay: Inhibition of 20 nM AmpC beta lactamase
[4] = target: T1, Beta-lactamase; assay: Inhibition of 30 nM AmpC beta lactamase

T1 sequence (P00811 whole entry): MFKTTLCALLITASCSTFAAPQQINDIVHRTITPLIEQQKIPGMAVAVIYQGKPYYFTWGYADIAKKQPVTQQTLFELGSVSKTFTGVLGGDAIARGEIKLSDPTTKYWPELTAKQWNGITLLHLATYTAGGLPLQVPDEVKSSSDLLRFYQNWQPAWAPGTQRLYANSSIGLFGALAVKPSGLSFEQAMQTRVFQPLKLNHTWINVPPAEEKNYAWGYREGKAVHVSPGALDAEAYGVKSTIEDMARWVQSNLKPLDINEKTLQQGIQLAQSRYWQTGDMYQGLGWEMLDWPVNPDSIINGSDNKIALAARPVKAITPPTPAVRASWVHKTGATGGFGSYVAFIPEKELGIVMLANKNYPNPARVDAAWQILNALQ

Structure (SMILES) | IC50 [1] [µM] | IC50 [2] [µM] | IC50 [3] [µM] | IC50 [4] [µM]
O=C1OC(c2ccc(O)cc2)(c2ccc(O)cc2)c2c(I)c(I)c(I)c(I)c21 [TETRAIODOPHENOLPHTHALEINE] | 3.8 | 20 | 19 | –
CC(=O)c1c(O)c(C)c(O)c(Cc2c(O)c3c(c(C(=O)/C=C/c4ccccc4)c2O)OC(C)(C)C=C3)c1O [ROTTLERIN] | 1.8 | 21 | – | 76

From ChEMBL document CHEMBL1138868, “Interpreting steep dose-response curves in early inhibitor discovery” (J Med Chem, 2006)
